The target in this assay is T1, α1β3γ2 GABAA receptor, γ2F464S variant (Homo sapiens, UniProt P14867+P18507+P28472, F464S).
T1 construct: expressed in transfected cells; host or cells: HEK293T
T1 sequence (P14867 28-456): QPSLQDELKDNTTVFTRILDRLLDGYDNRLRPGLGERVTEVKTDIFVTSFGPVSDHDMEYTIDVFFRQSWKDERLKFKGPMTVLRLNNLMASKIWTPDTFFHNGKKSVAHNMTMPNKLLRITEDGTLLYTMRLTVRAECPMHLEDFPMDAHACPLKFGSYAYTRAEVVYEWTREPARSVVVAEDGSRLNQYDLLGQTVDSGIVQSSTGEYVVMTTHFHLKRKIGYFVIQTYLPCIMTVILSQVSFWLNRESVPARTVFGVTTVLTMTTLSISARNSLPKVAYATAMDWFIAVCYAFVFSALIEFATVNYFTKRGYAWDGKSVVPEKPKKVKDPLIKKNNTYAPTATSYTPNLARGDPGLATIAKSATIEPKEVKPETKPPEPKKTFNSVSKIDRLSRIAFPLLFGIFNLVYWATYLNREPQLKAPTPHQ
T1 sequence (P28472 26-473 isoform P28472-2): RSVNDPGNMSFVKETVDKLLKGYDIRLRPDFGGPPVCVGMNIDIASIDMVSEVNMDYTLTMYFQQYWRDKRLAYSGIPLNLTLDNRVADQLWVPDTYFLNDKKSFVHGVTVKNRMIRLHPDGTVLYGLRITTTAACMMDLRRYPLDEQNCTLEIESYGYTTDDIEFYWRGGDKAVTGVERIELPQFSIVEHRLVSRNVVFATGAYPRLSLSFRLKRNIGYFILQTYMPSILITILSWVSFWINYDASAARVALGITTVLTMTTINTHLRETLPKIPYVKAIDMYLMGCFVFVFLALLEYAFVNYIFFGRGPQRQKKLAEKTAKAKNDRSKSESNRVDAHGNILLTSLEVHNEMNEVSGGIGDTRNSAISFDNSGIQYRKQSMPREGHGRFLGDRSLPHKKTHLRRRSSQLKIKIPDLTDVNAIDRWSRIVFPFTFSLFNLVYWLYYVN
T1 sequence (P18507 40-475 F464S): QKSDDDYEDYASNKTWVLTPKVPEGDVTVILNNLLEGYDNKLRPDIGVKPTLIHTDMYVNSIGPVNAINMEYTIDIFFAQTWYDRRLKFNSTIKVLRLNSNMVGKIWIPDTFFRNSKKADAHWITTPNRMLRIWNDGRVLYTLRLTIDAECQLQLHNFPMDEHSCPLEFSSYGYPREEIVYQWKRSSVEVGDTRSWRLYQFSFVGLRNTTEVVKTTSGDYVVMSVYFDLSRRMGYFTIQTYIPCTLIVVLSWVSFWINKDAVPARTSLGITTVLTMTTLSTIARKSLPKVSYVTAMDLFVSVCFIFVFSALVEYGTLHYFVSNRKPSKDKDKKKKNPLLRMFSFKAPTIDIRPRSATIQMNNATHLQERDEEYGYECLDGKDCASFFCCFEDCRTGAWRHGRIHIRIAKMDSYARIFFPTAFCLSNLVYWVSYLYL
Put plainly: Automated patch clamp of GABA-elicited currents (SyncroPatch 384PE), γ2F464S. The settings on record: mean. The format is cell-based. The procedure:
The coding sequences of human α1 (GABRA1, NM_000806), β3 (GABRB3, NM_021912), and γ2 (GABRG2, NM_198904.2) GABAAR subunits were subcloned into the pcDNA3.1 expression vectors (Invitrogen, Waltham, MA, USA).
HEK293T cells (ATCC, CRL-11268) were cultured at 37 °C in a humidified 5% CO2 incubator and maintained in Dulbecco’s modified Eagle’s medium (Invitrogen) supplemented with 10% fetal bovine serum (Life Technologies, Carlsbad, CA, USA), and 100 IU/mL of penicillin/streptomycin (Life Technologies). For the expression experiments, 4 × 10^5 cells were transfected using polyethylenimine (PEI) reagent (40 kD, Polysciences, Warrington, PA, USA) at a DNA: to transfection reagent ratio of 1:2.5 and harvested 36 h after transfection. To express WT and variant α1β3γ2 receptors, a total of 3 µg of α1, β3, and γ2 (WT or mutant) subunit cDNAs were transfected at a ratio of 1:1:1 into 60 mm culture dishes. For the mock-transfected condition, an empty pcDNA3.1 vector was added for a final cDNA transfection amount of 3 μg. For the electrophysiology experiments, 2.5 × 10^5 cells were plated in 100 mm culture dishes and transfected after 24 h with 3 μg of cDNA of each α1, β3, γ2 (wild-type or mutant) subunit, using X-tremeGENE HP DNA transfection Reagent (Roche Diagnostics, Basel, Switzerland), following the manufacturer’s protocol. Recordings were obtained forty-eight hours after transfection.
Whole-cell patch clamp recordings were conducted according to the manufacturer’s standard procedure for the SyncroPatch 384 [31]. Whole-cell voltage-clamp recordings were performed at room temperature on HEK293T cells 48 h after transfection with GABAAR subunits, using the SyncroPatch 384PE (Nanion Technologies, Munich, Germany). Cells, at a concentration of 400,000 cells/mL, were harvested in suspension in external solution containing 140 mM of NaCl, 2 mM of CaCl2, 4 mM of KCl, 1 mM of MgCl2, 5 mM of glucose, and 10 mM of HEPES (pH 7.4 with NaOH, 298 mOsm). The cells were loaded in a multi-hole (4 holes per well) 384-well Nanion patch clamp (NPC) chip with a thick borosilicate glass bottom and an average resistance pore size of […]. Built-in electrophysiological protocols were used, and the data were digitized using PatchControl 384 (Nanion Technologies) application. Using PatchControl 384, electrophysiological parameters, such as seal resistance, capacitance, and series resistance, were determined for each well after the application of a test pulse, and subsequently monitored over time. […] The currents were normalized to the maximal response of each well, and the concentration–response curves were calculated from single-point additions. The EC50 values for each variant or wild-type receptor were calculated across multiple wells for each experimental condition.

SMILES strings stand for the structures.

Take `NCCCC(=O)O` [GABA, γ-aminobutyric acid]: the Deactivation (1 mM GABA for 5 ms, HEK293T, -80 mV) was 332.6 ms. Moreover, the “IMAX (maximal GABA-evoked peak current)” value (1 mM GABA for 5 ms, HEK293T) was determined as 0.96 nA. Also, the “IMAX variant/IMAX WT” value (1 mM GABA) is given as 47.93%. Also, where the note is “10–90% rise time, 1 mM GABA for 5 ms, HEK293T”, the “Rise Time” value is on record as 29.22 ms.

The values are drawn from PMC10046037, “GABRG2 Variants Associated with Febrile Seizures” (Biomolecules, 2023).
